In ChEMBL document CHEMBL5131456, “Amyloidogenic immunoglobulin light chain kinetic stabilizers comprising a simple urea linker module reveal a novel binding sub-site” (Bioorg Med Chem Lett, 2022) one finds fold change (FC) and EC50 data, which are given here for 14 compounds.

The species entered for one experiment is Homo sapiens. As to the kind of experiment: Stabilization of unlabeled amyloidogenic full length immunoglobulin light chain dimer (unknown origin) assessed as fold proteinase K protection at 10 uM by size-exclusion chromatography.
Experiment [1] is described as follows: Stabilization of fluorescein-labelled amyloidogenic full length immunoglobulin light chain dimer T46L/F49Y mutant (unknown origin) assessed as concentration of stabilizer that affords 50% maximal proteinase K protection by protease coupled fluorescence polarization assay. On the set-up: species or system Homo sapiens.
Experiment [2] in a line: Stabilization of fluorescein-labelled amyloidogenic full length immunoglobulin light chain dimer (unknown origin) assessed as concentration of stabilizer that affords 50% maximal proteinase K protection by protease coupled fluorescence polarization assay. On the set-up: species or system Homo sapiens.

A value given as a limit tells only on which side of the number the result lay.

With `CCN(CC)c1ccc2c(C)c(CCOC(=O)NCc3cccc(-c4c[nH]cn4)c3)c(=O)oc2c1`, in the experiment filed under Homo sapiens, the fold change (FC) worked out at 0.91.

Consider `CCN(CC)c1ccc2c(C)c(CCNC(=O)NCc3cccnc3)c(=O)oc2c1`, for which the values for the EC50 in experiment [1] and in experiment [2] were 810 nM and 462 nM, respectively. Also, the fold change (FC) in the experiment filed under Homo sapiens was determined as 0.66.

For `CCN(CC)c1ccc2c(C)c(CCC(=O)NCCc3cccnc3)c(=O)oc2c1`, the EC50 in experiment [1] was 2110 nM; in experiment [2], 634 nM. Also, the fold change (FC) in the experiment filed under Homo sapiens stood at 0.61.

`CCN(CC)c1ccc2c(C)c(CCNC(=O)NCCc3cccnc3)c(=O)oc2c1`: the EC50 in experiment [1] is 2050 nM; in experiment [2], 1040 nM. Also, the fold change (FC) in the experiment listed under Homo sapiens turned out to be 0.5.

Consider `CCN(CC)c1ccc2c(C)c(CCNC(=O)NCc3ccc4ccccc4c3)c(=O)oc2c1`, for which the concentration for a half-maximal effect (EC50) came to 27.4 nM in experiment [1] and 111 nM in experiment [2]. In addition, in the experiment listed under Homo sapiens, the fold change (FC) was 0.66.

Regarding `CCN(CC)c1ccc2c(C)c(CCNC(=O)NCc3cccc(-c4c[nH]cn4)c3)c(=O)oc2c1`, the EC50 in experiment [1] turned out to be 74.1 nM; in experiment [2], 140 nM. The fold change (FC) in the experiment filed under Homo sapiens is 0.81.

As for `CCN(CC)c1ccc2c(C)c(CCC(=O)NCCN(C)C)c(=O)oc2c1`, the figures for the EC50 in experiment [1] and in experiment [2] were more than 10000 nM and 6800 nM, respectively. Also, the fold change (FC) in the experiment filed under Homo sapiens was found to be 0.13.

For `CCN(CC)c1ccc2c(C)c(CC(=O)NCCc3ccccc3)c(=O)oc2c1`, the concentration for a half-maximal effect (EC50) in experiment [1] turned out to be 853 nM; in experiment [2] it was 1830 nM. Also, the fold change (FC) in the experiment filed under Homo sapiens amounted to 0.28.

As for `CCN(CC)c1ccc2c(C)c(CCNC(=O)NCc3cncc4ccccc34)c(=O)oc2c1`, the EC50 in experiment [1] came to 377 nM; in experiment [2] it was 233 nM. In addition, the fold change (FC) in the experiment filed under Homo sapiens worked out at 0.74.

For the compound `CCN(CC)c1ccc2c(C)c(CC(=O)NCCN(C)C)c(=O)oc2c1`, the EC50 is 2660 nM in experiment [1] and 1750 nM in experiment [2]. For the same compound, the fold change (FC) in the experiment filed under Homo sapiens was found to be 0.39.

`CCN(CC)c1ccc2c(C)cc(=O)oc2c1`: the fold change (FC) in the experiment filed under Homo sapiens was 0.28.

`CCN(CC)c1ccc2c(C)c(CCNC(=O)NCc3ccccc3)c(=O)oc2c1`: the concentration giving a half-maximal response (EC50) in experiment [1] came to 381 nM; in experiment [2] it was 348 nM. For the same compound, the fold change (FC) in the experiment listed under Homo sapiens was 0.69.

On to `CCN(CC)c1ccc2c(C)c(CCNC(=O)CCc3cccnc3)c(=O)oc2c1`, for which the concentration giving a half-maximal response (EC50) was 1610 nM in experiment [1] and 1180 nM in experiment [2]. Moreover, in the experiment listed under Homo sapiens, the fold change (FC) was 0.55.

Consider `CCN(CC)c1ccc2c(C)c(CCNC(=O)CCc3ccccc3)c(=O)oc2c1`, for which the EC50 in experiment [1] stood at 513 nM; in experiment [2] it was 490 nM. Also, in the experiment filed under Homo sapiens, the fold change (FC) is 0.17.
